Assays:
induced-diabetic rats = test: Antihyperglycemic activity: fasting blood glucose in alloxan-induced diabetic rats; format: in vivo, rat
[1] = system: Candida albicans ATCC10231; test: Kirby-Bauer disc diffusion; conditions: reference antibiotic disc, 100 unit
[2] = system: Cryptococcus neoformans ATCC90112; test: Kirby-Bauer disc diffusion; conditions: reference antibiotic disc, 100 unit

Molecule | FBG after two hours of injection (induced-diabetic rats; diabetic rats, s.c., two hours) | difference between normal rats and treated diabetic rats (induced-diabetic rats; either dose) | FBG after 8 hours of treatment (induced-diabetic rats; lower dose of insulin (10 units/kg b.w)) | Zone of inhibition [1] | Zone of inhibition [2]
insulin: insulin from bovine pancreas (≧27 units/mg), suspension in distilled water | sharp significant decrease | No significant difference | returned to the diabetic state |  | 
C[C@@H]1[C@H](O)[C@@H](C)/C=C/C=C/CC/C=C/C=C/C=C/C=C/C(O[C@H]2O[C@H](C)[C@@H](O)[C@H](N)[C@@H]2O)CC2O[C@](O)(CC(O)C(O)CCC(O)CC(O)CC(O)CC(=O)O[C@H]1C)CC(O)C2C(=O)O (some centres unmarked) [Nystatin, nystatin] |  |  |  | 10 mm | 9 mm
